Measured values: patent publication US9409884B2 (Rigel Pharmaceuticals, Inc., priority 2012, dated 2016)

These compounds were tested against AMPK (assay: AMPK activation, enzyme-linked immunosorbent assay). Conditions: Table 8, compounds of Table 1.
Type: biochemical
Procedure: Compounds of Table 1 were assayed for their ability to activate AMPK using an enzyme-linked immunosorbent assay.
Compounds of Table 2 were assayed for their ability to activate AMPK using an enzyme-linked immunosorbent assay.
Compounds of Table 3 were assayed for their ability to activate AMPK using an enzyme-linked immunosorbent assay.
Compounds of Table 4 were assayed for their ability to activate AMPK using an enzyme-linked immunosorbent assay.
Compounds of Table 5 were assayed for their ability to activate AMPK using an enzyme-linked immunosorbent assay.
Compounds of Table 6 were assayed for their ability to activate AMPK using an enzyme-linked immunosorbent assay.
Compounds of Table 7 were assayed for their ability to activate AMPK using an enzyme-linked immunosorbent assay.

Structure (SMILES) | EC50 [nM]
N#Cc1ccc(N2CCC(Oc3ccc(C(=O)NC4CCN(Cc5ccncc5)CC4)nc3)CC2)cc1 [Compound 1-1, 5-(1-(4-cyanophenyl)piperidin-4-yloxy)-N-(1-(pyridin-4-ylmethyl)piperidin-4-yl)picolinamide] | 100 to 500
N#Cc1ccc(CN2CCC(NC(=O)c3ccc(OC4CCN(c5ccc(C#N)cc5)CC4)cn3)CC2)cc1 [Compound 1-2, N-(1-(4-cyanobenzyl)piperidin-4-yl)-5-(1-(4-cyanophenyl)piperidin-4-yloxy) picolinamide] | < 100
O=C(NC1CCN(Cc2ccncc2)CC1)c1ccc(OC2CCN(c3ccc(C(F)(F)F)cc3)CC2)cn1 [Compound 1-3, N-(1-(pyridin-4-ylmethyl)piperidin-4-yl)-5-(1-(4-(trifluoromethyl)phenyl)piperidin-4-yloxy)picolinamide] | < 100
N#Cc1ccc(CN2CCC(NC(=O)c3ccc(OC4CCN(c5ccc(C(F)(F)F)cc5)CC4)cn3)CC2)cc1 [Compound 1-4, N-(1-(4-cyanobenzyl)piperidin-4-yl)-5-(1-(4-(trifluoromethyl)phenyl)piperidin-4-yloxy) picolinamide] | < 100
O=C(NC1CCN(Cc2cccnc2)CC1)c1ccc(OC2CCN(c3ccc(C(F)(F)F)cc3)CC2)cn1 [Compound 1-5, N-(1-(pyridin-3-ylmethyl)piperidin-4-yl)-5-(1-(4-(trifluoromethyl)phenyl)piperidin-4-yloxy) picolinamide] | < 100
N#Cc1ccc(N2CCC(Oc3ccc(C(=O)NC4CCN(Cc5cccnc5)CC4)nc3)CC2)cc1 [Compound 1-6, N-(1-(pyridin-3-ylmethyl)piperidin-4-yl)-5-(1-(4-cyanophenyl)piperidin-4-yloxy)picolinamide] | 100 to 500
COC(=O)c1ccc(CN2CCC(NC(=O)c3ccc(OC4CCN(c5ccc(C#N)cc5)CC4)cn3)CC2)cc1 [Compound 1-7, methyl 4-((4-(5-(1-(4-cyanophenyl)piperidin-4-yloxy)picolinamido)piperidin-1-yl)methyl)benzoate] | < 100
COC(=O)c1ccc(CN2CCC(NC(=O)c3ccc(OC4CCN(c5ccc(C(F)(F)F)cc5)CC4)cn3)CC2)cc1 [Compound 1-8, methyl 4-((4-(5-(1-(4-(trifluoromethyl)phenyl)piperidin-4-yloxy)picolinamido)piperidin-1-yl)methyl)benzoate] | < 100
CC(C)(C)OC(=O)N1CCC(NC(=O)c2ccc(OC3CCN(c4ccc(C(F)(F)F)cc4)CC3)nc2)CC1 [Compound 1-9, tert-butyl 4-(6-(1-(4-(trifluoromethyl)phenyl)piperidin-4-yloxy)nicotinamido) piperidine-1-carboxylate] | 100 to 500
O=C(NC1CCN(Cc2ccncc2)CC1)c1ccc(OC2CCN(c3ccc(C(F)(F)F)cc3)CC2)nc1 [Compound 1-10, N-(1-(pyridin-4-ylmethyl)piperidin-4-yl)-6-(1-(4-(trifluoromethyl)phenyl)piperidin-4-yloxy)nicotinamide] | < 100
O=C(NC1CCN(Cc2ccc(F)cc2)CC1)c1ccc(OC2CCN(c3ccc(C(F)(F)F)cc3)CC2)nc1 [Compound 1-11, N-(1-(4-fluorobenzyl)piperidin-4-yl)-6-(1-(4-(trifluoromethyl)phenyl)piperidin-4-yloxy)nicotinamide] | < 100
CC(C)(C)OC(=O)N1CCC(NC(=O)c2cc(OC3CCN(c4ccc(C(F)(F)F)cc4)CC3)ccn2)CC1 [Compound 1-12, tert-butyl 4-(4-(1-(4-(trifluoromethyl)phenyl)piperidin-4-yloxy)picolinamido) piperidine-1-carboxylate] | 500 to 1000
O=C(NC1CCN(Cc2ccncc2)CC1)c1cc(OC2CCN(c3ccc(C(F)(F)F)cc3)CC2)ccn1 [Compound 1-13, N-(1-(pyridin-4-ylmethyl)piperidin-4-yl)-4-(1-(4-(trifluoromethyl)phenyl)piperidin-4-yloxy)picolinamide] | 100 to 500
O=C(NC1CCN(Cc2ccncc2)CC1)c1cncc(OC2CCN(c3ccc(C(F)(F)F)cc3)CC2)c1 [Compound 1-14, N-(1-(pyridin-4-ylmethyl)piperidin-4-yl)-5-(1-(4-(trifluoromethyl)phenyl)piperidin-4-yloxy)nicotinamide] | < 100
CC(C)(C)OC(=O)N1CCC(NC(=O)c2ccnc(OC3CCN(c4ccc(C(F)(F)F)cc4)CC3)c2)CC1 [Compound 1-15, tert-butyl 4-(2-(1-(4-(trifluoromethyl)phenyl)piperidin-4-yloxy)isonicotinamido) piperidine-1-carboxylate] | 1000 to 5000
O=C(NC1CCN(Cc2ccc(F)cc2)CC1)c1cncc(OC2CCN(c3ccc(C(F)(F)F)cc3)CC2)c1 [Compound 1-16, N-(1-(4-fluorobenzyl)piperidin-4-yl)-5-(1-(4-(trifluoromethyl)phenyl)piperidin-4-yloxy)nicotinamide] | < 100
N#Cc1ccc(CN2CCC(NC(=O)c3cncc(OC4CCN(c5ccc(C(F)(F)F)cc5)CC4)c3)CC2)cc1 [Compound 1-17, N-(1-(4-cyanobenzyl)piperidin-4-yl)-5-(1-(4-(trifluoromethyl)phenyl)piperidin-4-yloxy)nicotinamide] | < 100
O=C(NC1CCN(Cc2cccnc2)CC1)c1cncc(OC2CCN(c3ccc(C(F)(F)F)cc3)CC2)c1 [Compound 1-18, N-(1-(pyridin-3-ylmethyl)piperidin-4-yl)-5-(1-(4-(trifluoromethyl)phenyl)piperidin-4-yloxy)nicotinamide] | < 100
O=C(NC1CCNCC1)c1ccnc(OC2CCN(c3ccc(C(F)(F)F)cc3)CC2)c1 [Compound 1-19, N-(piperidin-4-yl)-2-(1-(4-(trifluoromethyl)phenyl)piperidin-4-yloxy) isonicotinamide] | 1000 to 5000
O=C(NC1CCN(Cc2ccncc2)CC1)c1ccnc(OC2CCN(c3ccc(C(F)(F)F)cc3)CC2)c1 [Compound 1-20, N-(1-(pyridin-4-ylmethyl)piperidin-4-yl)-2-(1-(4-(trifluoromethyl)phenyl)piperidin-4-yloxy) isonicotinamide] | 500 to 1000

Same assay, conditions: Table 14, compounds of Table 7

Structure (SMILES) | EC50 [nM]
N#Cc1ccc(CN2CC[C@@H](NC(=O)c3ccc(C(=O)N4CCC(Oc5ccc(S(=O)(=O)C(F)(F)F)cc5)CC4)nc3)[C@H](F)C2)cc1 (relative stereo) [Compound 7-119, N-((trans)-1-(4-cyanobenzyl)-3-fluoropiperidin-4-yl)-6-(4-(4-(trifluoromethylsulfonyl)phenoxy)piperidine-1-carbonyl)nicotinamide] | < 1000
COc1ccc(C(=O)C2CCN(C(=O)c3ccc(C(=O)N[C@H]4CCN(Cc5ccc(OC(F)(F)F)cc5)C[C@H]4F)cn3)CC2)cc1 (relative stereo) [Compound 7-123, N-((cis)-3-fluoro-1-(4-(trifluoromethoxy)benzyl)piperidin-4-yl)-6-(4-(4-methoxybenzoyl)piperidine-1-carbonyl)nicotinamide] | < 1000
COc1ccc(C(=O)C2CCN(C(=O)c3ccc(C(=O)N[C@@H]4CCN(Cc5ccc(C#N)cc5)C[C@H]4F)cn3)CC2)cc1 (single isomer, unassigned) [Compound 7-106] | < 1000
COc1ccc(C(=O)C2CCN(C(=O)c3ccc(C(=O)N[C@H]4CCN(Cc5ccc(C#N)cc5)C[C@@H]4F)cn3)CC2)cc1 (single isomer, unassigned) [Compound 7-107] | < 1000
